# From patent EP1770089A1, “Pyranodibenzofuran derivatives with antifungal and antibacterial activity” (priority 2005, dated 2007)
# Where two headings read alike, the source gives them in different places.
# Experiments:
# Format in all cases: cell-based
# Candida albicans = test: In vitro activity (MIC99) against Candida albicans; settings: > 99 % inhibition of growth; for MIC99: Candida albicans, read-out: MIC99 C. albicans
# Experimental: The antifungal activity of compounds 5, 9, and 11-22 against Candida albicans was analyzed by the measure of the MIC99 concentration (see Table 1). Table 1. In Vitro Activity against Candida albicans of pyranodibenzofuran derivatives
# L1210 cells = test: Cytotoxicity, MTA (Microculture Tetrazolium Assay) test; settings: cytotoxicity on L1210 cells
# Experimental: The cytotoxicity of compounds 5, 9, and 10-21 was determined in L1210 cells using the MTA (Microculture Tetrazolium Assay) test.
# [1] = tested on: Mycobacterium smegmatis mc^2155; test: Mycobacterial growth inhibition in liquid culture (MIC99); settings: two-day's growth at 37°C, 99% decrease vs DMSO control; for MIC99: Mycolicibacterium smegmatis, MC2155|MC^2155, 48 h
# [2] = tested on: Mycobacterium tuberculosis H37Rv; test: Mycobacterial growth inhibition in liquid culture, CFU plating (MIC99); settings: for MIC99: 504 h
# [3] = tested on: M. tuberculosis Beijing (GC1237); test: Growth inhibition in liquid culture, CFU plating (MIC99); settings: Mycobacterium tuberculosis
# M. microti (MYC-942272) = test: as above
# M. tuberculosis H37Ra = test: as above; settings: Mycobacterium tuberculosis
# M. bovis BCG (Pasteur) = test: microbe, parasite or virus in culture; settings: Mycobacterium tuberculosis variant bovis BCG
# Nocardia asteroides = test: Growth inhibition in liquid medium, CFU plating (MIC99); settings: Actinomycetes
# Experimental: (§1) To further assess its specificity, effect of compounds 9 and 16 was also assessed in vitro growth in liquid medium on a whole range of bacteria (Corynebacterium jeikeium, Escherichia coli, Enterococcus faecalis, Klebsiella oxytoca, Nocardia asteroides, Staphylococcus aureus, Pseudomonas aeruginosa and Streptomyces). Compounds were solubilized in dimethylsulfoxide (DMSO) and 100 µl of the appropriate dilution were added to a 5 ml culture with predetermined bacterium inoculum. Quantification of the bacteria was carried out by plating on appropriate agar serial 5-fold dilutions in medium, and colony forming units (CFUs) were ascertained after 24 to 48 hours according to the strains. Table 5. Antibacterial activity of compounds 9 and 16 on other bacteria
# Corynebacterium jeikeium = test: as above; settings: Actinomycetes
# Experimental: as §1
# Enterococcus faecalis = test: as above; settings: Gram-positive
# Experimental: as §1
# Escherichia coli = test: as above; settings: Gram-negative
# Experimental: as §1
# Pseudomonas aeruginosa = test: as above; settings: Gram-negative
# Experimental: as §1
# VERO cells = test: Cytotoxicity, MTT test; settings: for IC50: cytotoxicity on VERO cells, MTT, 24 hours
# Experimental: (§2) The cytotoxicity of compounds 9 and 16 was further assessed in various mammalian cell lines using the MTT test. RAW and A549 cell lines were maintained in RPMI 1640 medium without L-GLU supplemented with 10% Fetal calf serum (FCS), penicillin-streptomycin solution 1 % at 37 °C in air with 5 % CO2. VERO cell lines were maintained in D-MEM medium without L-GLU supplemented with 10% Fetal calf Serum (FCS), penicillin-streptomycin solution 1 % at 37 °C in air with 5 % CO2. Proliferating cells were seeded for 96-well microtitration plates at a density of 5. 10^5 cells/mL which were further incubated for 24 h at 37°C under 5 % CO2 in air before each assay. Various concentrations of solutions of 9 and 16 (10 µl/well) in 1.25 % dimethylsulfoxide (DMSO)) were added and then incubated for 24 hours under the above conditions. At the end of incubation, 20 µl of dimethylthiazolyl diphenyl tetrazolium bromide solution (MTT) (7.5 mg/ml) was then added into each well and further incubated for 4 h at 37°C to allow the formation of formazan. The crystals of formazan were then dissolved with 100 µl of an acidic solution (Sodium dodecyl sulfate (SDS) 10 %, HCl 10 mM). The optical density of each well was measured at 595 nm using a Multiwell plate reader. The values given are the average means of six replicates. The 50 % inhibition concentration was determined by curve fitting.
# Macrophages = test: Cytotoxicity, MTT test; settings: cytotoxicity on macrophages
# Experimental: as §2
# [4] = read-out: MIC99 on M. smegmatis, mc2155
# [5] = mc2155, read-out: MIC99 on M. smegmatis
# [6] = Mycobacterium tuberculosis, H37RV, H37Rv, three weeks growth in 7H9, CFU on 7H11, NI = no inhibition at 1 mg/mL, read-out: MIC99 on M. tuberculosis
# [7] = H37Rv, three weeks growth in 7H9, CFU on 7H11, NI = no inhibition at 1 mg/mL
# [8] = Mycobacterium tuberculosis, H37RV, M. tuberculosis H37Rv, three week growth in 7H9/OADC, read-out: MIC99
compound,measurement,setting,value
"CC1(C)Oc2cc3c(cc2[C@H](O)[C@@H]1O)oc1ccccc13 (racemic) [Compound 11, (±)cis-3,4-dihydro-3,4-dihydroxy-2,2-dimethyl-2H-benzofuro[2,3-g]-[1]-benzopyran]",MIC99,Candida albicans,27 µg/mL
same,IC50,"L1210 cells; Mus musculus, read-out: IC50",13 µg/mL
same,MIC99,[1]; [4],30 to 60 µg/mL
same,MIC99,[1]; [5],60 µg/mL
same,MIC99,[2]; [6],> 1000 µg/mL
"CC1(C)Oc2ccc3oc4ccccc4c3c2[C@@H](O)[C@H]1O (racemic) [Compound 12, (±)cis-1,2-dihydro-1,2-dihydroxy-3,3-dimethyl-3H-benzofuro[3,2-f][1]benzopyran]",MIC99,Candida albicans,> 160 µg/mL
same,IC50,"L1210 cells; Mus musculus, read-out: IC50",1.3 µg/mL
same,MIC99,[1]; [4],30 to 60 µg/mL
same,MIC99,[1]; [5],30 µg/mL
same,MIC99,[2]; [6],60 µg/mL
"CC1(C)Oc2ccc3oc4ccccc4c3c2C(=O)C1O (racemic) [Compound 13, (±)2,3-dihydro-2-hydroxy-3,3-dimethyl-1H-benzofuro[3,2-f][1]benzopyran-1-one]",MIC99,Candida albicans,> 330 µg/mL
same,IC50,"L1210 cells; Mus musculus, read-out: IC50",5.04 µg/mL
"CC(=O)CC1(O)C(=O)c2c(ccc3oc4ccccc4c23)OC1(C)C (racemic) [Compound 14, (±)2,3-dihydro-2-hydroxy-3,3-dimethyl-2-(2-oxopropyl)-1Hbenzofuro[3,2f][1]benzopyran-1-one]",MIC99 C. albicans,Candida albicans,150 µg/mL
same,IC50,L1210 cells,18.981 µg/mL
"CC1(C)Oc2ccc3oc4ccccc4c3c2[C@@H](O)[C@@H]1O (racemic) [Compound 15, (±)trans-1,2,-dihydro-1,2-dihydroxy-3,3-dimethyl-3H-benzofuro[3,2-f][1]benzopyran]",MIC99 C. albicans,Candida albicans,> 300 µg/mL
same,IC50,L1210 cells,12.3405 µg/mL
same,MIC99 on M. smegmatis,[1]; mc2155,30 µg/mL
same,MIC99 on M. tuberculosis,[2]; [7],NI (No inhibition observed at the highest concentration tested (1 mg/mL))
"CC(=O)O[C@H]1c2cc3oc4ccccc4c3cc2OC(C)(C)[C@H]1OC(C)=O (racemic) [Compound 17, (±)cis-3,4-diacetoxy-3,4-dihydro-2,2-dimethyl-2H-benzofuro[2,3-g]-[1]-benzopyran]",MIC99,Candida albicans,> 400 µg/mL
same,IC50,"L1210 cells; Mus musculus, read-out: IC50",8.52 µg/mL
"CC(=O)O[C@@H]1c2c(ccc3oc4ccccc4c23)OC(C)(C)[C@@H]1OC(C)=O (racemic) [Compound 18, (±)cis-1,2-diacetoxy-1,2-dihydro-3,3-dimethyl-3H-benzofuro[3,2-f][1]benzopyran]",MIC99,Candida albicans,> 300 µg/mL
same,IC50,"L1210 cells; Mus musculus, read-out: IC50",9.35 µg/mL
"CC(=O)O[C@@H]1c2c(ccc3oc4ccccc4c23)OC(C)(C)[C@H]1OC(C)=O (racemic) [Compound 19, (±)trans-1,2,-diacetoxy-1,2-dihydro-3,3-dimethyl-3H-benzofuro[3,2-f][1]benzopyran]",MIC99 C. albicans,Candida albicans,> 300 µg/mL
same,IC50,L1210 cells,5.5005 µg/mL
same,MIC99 on M. smegmatis,[1]; mc2155,180 µg/mL
same,MIC99 on M. tuberculosis,[2]; [7],NI (No inhibition observed at the highest concentration tested (1 mg/mL))
"CC(=O)OC1C(=O)c2c(ccc3oc4ccccc4c23)OC1(C)C (racemic) [Compound 20, (±)2-acetoxy-2,3-dihydro-2-hydro-3,3-dimethyl-1H-benzofuro[3,2-f][1]benzopyran-1-one]",MIC99 C. albicans,Candida albicans,> 280 µg/mL
same,IC50,L1210 cells,28.5 µg/mL
"C#CC(C)(C)Oc1ccc2oc3ccccc3c2c1 [Compound 5, 2-(1,1-dimethyl-propargyloxy)-dibenzofuran]",MIC99,[3]; read-out: MIC99,> 500 µg/mL
same,MIC99,M. microti (MYC-942272),> 500 µg/mL
same,MIC99,M. tuberculosis H37Ra,> 500 µg/mL
same,MIC99,[1]; [4],12 µg/mL
same,MIC99,M. bovis BCG (Pasteur),> 500 µg/mL
same,MIC99,[2]; [6],> 1000 µg/mL
same,MIC99,[2]; [8],> 500 µg/mL
"C=C1Oc2ccc3oc4ccccc4c3c2C1(C)C [Compound 10, 1,2-dihydro-1,1-dimethyl-2-methylenebenzofuro[5,4-b]benzofuran]",MIC99,Candida albicans,> 300 µg/mL
same,IC50,"L1210 cells; Mus musculus, read-out: IC50",3.71 µg/mL
"CC1(C)CCc2c(ccc3oc4ccccc4c23)O1 [Compound 16, 1,2-dihydro-3,3-dimethyl-3H-benzofuro[3,2-f][1]benzopyran]",MIC99,Nocardia asteroides,15 µg/mL
same,MIC99,Corynebacterium jeikeium,> 150 µg/mL
same,MIC99,Enterococcus faecalis,> 500 µg/mL
same,MIC99,Escherichia coli,> 500 µg/mL
same,MIC99,Pseudomonas aeruginosa,> 500 µg/mL
same,IC50,"VERO cells; Chlorocebus sabaeus, Vero, 24 h, read-out: IC50",> 50 µg/mL
same,IC50,VERO cells,100 µg/mL
same,Selectivity Index,"VERO cells; summary statement, cell type not specified",above 10
same,IC50,"Macrophages; Macrophage, 24 h, read-out: IC50",> 50 µg/mL
same,IC50,Macrophages; 24 hours,> 100 µg/mL
same,MIC99,[3],< 5 µg/mL
same,MIC99,M. tuberculosis H37Ra,10 µg/mL
same,MIC99,[1]; [4],5 µg/mL
same,MIC99,[1]; [5],1 µg/mL
same,MIC99,M. bovis BCG (Pasteur),10 µg/mL
same,MIC99,[2]; [6],5 µg/mL
same,MIC99,"[2]; Mycobacterium tuberculosis, H37RV, M. tuberculosis H37Rv, three week growth in 7H9/OADC",< 5 µg/mL
same,MIC,"[2]; Mycobacterium tuberculosis, H37RV, summary statement, read-out: MIC measured on M. tuberculosis",< 6.25 µg/mL
"NNC(=O)c1ccncc1 [INH, isoniazid, reference compound]",IC50,"L1210 cells; Mus musculus, read-out: IC50",14 µg/mL
same,MIC99,[3]; read-out: MIC99,0.1 µg/mL
same,MIC99,M. microti (MYC-942272),0.1 µg/mL
same,MIC99,M. tuberculosis H37Ra,1 µg/mL
same,MIC99,[1]; [5],13 µg/mL
same,MIC99,M. bovis BCG (Pasteur),1 µg/mL
same,MIC99,[2]; [6],0.1 µg/mL
same,MIC99,[2]; [8],0.1 µg/mL
"Clc1ccc(COC(Cn2ccnc2)c2ccc(Cl)cc2Cl)c(Cl)c1 (stereo not drawn) [Miconazole, reference compound]",MIC99,Candida albicans,0.25 to 60 µg/mL
"(±)cis-4H-3a,4,12b-trihydro-2,2-dimethyl-1,3-dioxolo[4,5-h]benzofuro[3,2-g]benzopyran [Compound 21]",MIC99 C. albicans,Candida albicans,> 400 µg/mL
same,IC50,L1210 cells,12.8535 µg/mL
